For 16 molecules, TGI and GI50 results are on record in PubChem BioAssay (NCI).

Several values for one entry are separate records, joined by “and”; a condition that tells them apart may be missing. Equal entries are not always repeated.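 Tested at 5 concentrations; 48 h exposure; 96-well plates; endpoints linearly interpolated, else capped at highest concentration. The concentration for 50% growth inhibition is given as GI50. TGI is the concentration that stops growth completely.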

Among the test systems are SF-268 CNS; M14 melanoma; OVCAR-8 ovarian; HS 578T breast; 786-0 renal; CAKI-1 renal; SK-MEL-2 melanoma; HOP-92 NSCLC.
Experiment in all cases: NCI-60 cell line screen, 48 h

Take `C=CCC1CC(n2cc(C)c(=O)[nH]c2=O)OC1CO[Si](C)(C)C(C)(C)C` (centres undefined): the TGI in the test on SF-268 CNS was 30.9 µM; with M14 melanoma, 33.5 µM; with OVCAR-8 ovarian it was 28.5 µM; in the test with HS 578T breast, 29.4 µM; in the test with 786-0 renal it was 28.8 µM; with CAKI-1 renal, 31.8 µM. Moreover, the figures for the TGI in the test with SK-MEL-2 melanoma and in the test on HOP-92 NSCLC were 32.8 µM and 31 µM, respectively.

Regarding `C=C(C(=O)O)[C@@H]1C[C@@H]2O[C@H]1[C@@H](O)[C@@H](C)CCCC(C)=CCC[C@@]2(C)O`, the TGI in the test on SF-268 CNS, in the test with M14 melanoma, with OVCAR-8 ovarian, in the test with HS 578T breast, in the test with 786-0 renal and in the test with CAKI-1 renal was more than 100 µM throughout. For the same molecule, the TGI with SK-MEL-2 melanoma and in the test with HOP-92 NSCLC was more than 100 µM throughout. Besides, in the test with CAKI-1 renal, the GI50 is 37.2 µM and > 100 µM.

Regarding `CC(=N\N)/C(C)=N/N=C(C)/C(C)=N/N`, the TGI with SF-268 CNS, with M14 melanoma, with OVCAR-8 ovarian, in the test with HS 578T breast, in the test on 786-0 renal and with CAKI-1 renal was more than 100 µM each time. For the same molecule, the TGI with SK-MEL-2 melanoma and in the test with HOP-92 NSCLC was more than 100 µM throughout.

Take `O=C1/C(=C\c2cccc(Oc3ccccc3)c2)SC(c2ccccc2)N1c1ccccc1` (centres undefined): the TGI with SF-268 CNS, with M14 melanoma, in the test with OVCAR-8 ovarian, in the test on HS 578T breast, in the test with 786-0 renal and with CAKI-1 renal was more than 100 µM each time. Besides, the TGI with SK-MEL-2 melanoma and in the test with HOP-92 NSCLC was more than 100 µM throughout.

Regarding `O=C(O)Cc1ccc(Nc2nc3cc(C(F)(F)F)ccc3nc2C(=O)O)cc1`, the TGI in the test with SF-268 CNS, with M14 melanoma, in the test on OVCAR-8 ovarian, with HS 578T breast, in the test on 786-0 renal and in the test with CAKI-1 renal was more than 100 µM in each case. Further, the TGI in the test with SK-MEL-2 melanoma and in the test with HOP-92 NSCLC was more than 100 µM throughout.

As to `O=[N+]([O-])c1ccc2c(c1)N([O-])C1(CCCCC1)[N+]2=O`, the TGI in the test on SF-268 CNS worked out at 69.4 µM; in the test on M14 melanoma it was 30.5 µM; with OVCAR-8 ovarian it was 42.6 µM; in the test on HS 578T breast it was 47.9 µM; in the test on 786-0 renal, 24.6 µM; with CAKI-1 renal, 34.9 µM. The TGI in the test on SK-MEL-2 melanoma came to 52.1 µM; in the test with HOP-92 NSCLC, 29.1 µM.

`c1cc2c(cc1NC1=NCCO1)OCO2`: the TGI in the test on SF-268 CNS, in the test with M14 melanoma, with OVCAR-8 ovarian, with HS 578T breast, in the test on 786-0 renal and with CAKI-1 renal was more than 100 µM in each case. The TGI in the test with SK-MEL-2 melanoma and in the test with HOP-92 NSCLC was more than 100 µM throughout.

Regarding `Clc1ccc(C2=NN=C3C(c4ccccc4)=Nc4ccccc4N3C2)cc1`, the TGI with SF-268 CNS is more than 93.9 µM; in the test with M14 melanoma, more than 25.8 µM; in the test with OVCAR-8 ovarian it was more than 100 µM; in the test on HS 578T breast it was 31.6 µM; with 786-0 renal, more than 100 µM; with CAKI-1 renal it was more than 100 µM. The TGI in the test on SK-MEL-2 melanoma was more than 100 µM; in the test on HOP-92 NSCLC it was more than 93.2 µM.

In the case of `NC(N)=NC(N)=Nc1ccc(S(=O)(=O)O)cc1`, the TGI in the test on SF-268 CNS, with M14 melanoma, with OVCAR-8 ovarian, in the test with HS 578T breast, with 786-0 renal and in the test with CAKI-1 renal was more than 100 µM in each case. Besides, the TGI with SK-MEL-2 melanoma and with HOP-92 NSCLC was more than 100 µM each time.

Turning to `O=C(O)C(O)C(O)C(=O)O` (centres undefined), the TGI with SF-268 CNS, with M14 melanoma, with OVCAR-8 ovarian, with HS 578T breast, in the test on 786-0 renal and in the test with CAKI-1 renal was more than 100 µM in each case. The TGI with SK-MEL-2 melanoma and in the test on HOP-92 NSCLC was more than 100 µM throughout.

As to `O=C(/C=C/c1ccc(-c2ccccc2)cc1)NCc1ccc(C(=O)NCc2ccccc2)cc1`, the TGI in the test on SF-268 CNS, in the test on M14 melanoma, in the test on OVCAR-8 ovarian, with HS 578T breast, with 786-0 renal and in the test with CAKI-1 renal was more than 100 µM throughout. Moreover, the TGI in the test on SK-MEL-2 melanoma and with HOP-92 NSCLC was more than 100 µM in each case.

For the molecule `Cc1ccccc1OC(C)C(=O)NN1C(=O)CSC1c1ccc(Cl)cc1` (centres undefined), the TGI in the test on SF-268 CNS was more than 67.4 µM; in the test with M14 melanoma it was more than 100 µM; with OVCAR-8 ovarian, more than 100 µM; in the test with HS 578T breast it was more than 100 µM; with 786-0 renal, 34.8 µM; in the test on CAKI-1 renal, more than 100 µM. The TGI with SK-MEL-2 melanoma and with HOP-92 NSCLC was more than 100 µM throughout.

Consider `O=C1c2ccccc2C(=O)c2cc(N=Nc3c(O)ccc4ccccc34)ccc21`, for which the TGI in the test with SF-268 CNS, in the test with M14 melanoma, in the test on OVCAR-8 ovarian, with HS 578T breast, with 786-0 renal and with CAKI-1 renal was more than 100 µM in each case. The TGI in the test on SK-MEL-2 melanoma and with HOP-92 NSCLC was more than 100 µM each time.

For `Cc1nc(C)c(N2CCN(S(=O)(=O)N(Cc3ccccc3)Cc3ccccc3)CC2)c(=O)[nH]1`, the TGI in the test with SF-268 CNS was more than 75 µM; with M14 melanoma, more than 100 µM; in the test on OVCAR-8 ovarian, 54.1 µM; with HS 578T breast it was 38.8 µM; with 786-0 renal it was 23.5 µM; with CAKI-1 renal, more than 47.9 µM. Besides, the TGI with SK-MEL-2 melanoma is more than 100 µM; in the test with HOP-92 NSCLC it was more than 78.1 µM.

As for `COc1ccc2nc(-c3ccccc3)cc(OCC(=O)O)c2c1`, the TGI with SF-268 CNS, with M14 melanoma, with OVCAR-8 ovarian, in the test on HS 578T breast, with 786-0 renal and with CAKI-1 renal was more than 100 µM throughout. The TGI in the test on SK-MEL-2 melanoma and in the test with HOP-92 NSCLC was more than 100 µM in each case.

With `CC[C@@]1(O)C(=O)OCc2c1cc1n(c2=O)Cc2c-1nc1ccccc1c2/C=N\NC(=O)C1CCCN1` (some centres undefined), the TGI in the test on SF-268 CNS was 3.96 µM; with M14 melanoma, 5.81 µM; in the test with OVCAR-8 ovarian, 10.9 µM; in the test on HS 578T breast, more than 100 µM; in the test on 786-0 renal, 8.01 µM; in the test with CAKI-1 renal, more than 23.5 µM. The TGI in the test on SK-MEL-2 melanoma worked out at 58.4 µM; with HOP-92 NSCLC, 21.2 µM.
